According to US20260365621A1, “Non-Hallucinogenic Tryptamine Compounds” (priority 2022, published 2026):
Where two headings read alike, the source gives them in different places.

Columns and labels:
[1] = tested on: head twitch response in C57BL/6J male mice; type: in vivo
Method: The study of example 2 was performed using C57BL/6J male mice (25-30 g; Envigo, Milan, Italy). The animals were divided into groups of 10 animals each: (a) control, (b) vehicle, and (c) combinations of psilocyn (1 mg/kg) and pinoline (3 or 10 mg/kg). The treated mice were left to fast in the 12 hours prior to administration. Psilocyn and pinoline were resuspended in a solution of EtOH 20%. Mice were subjected to a singular oral administration of compounds. The vehicle group was given the EtOH 20% solution.
After administration, the animals were placed individually in transparent plexiglass cages. […] (See Halberstadt, Adam L., et al. “Differential contributions of serotonin receptors to the behavioral effects of indoleamine hallucinogens in mice.” Journal of psychopharmacology 25.11 (2011): 1548-1561.) (Sun, Yina, et al. “Effects of low-doses of methamphetamine on d-fenfluramine-induced head-twitch response (HTR) in mice during ageing and c-fos expression in the prefrontal cortex.” BMC neuroscience 24.1 (2023): 1-17.).

5-HT2A [2] = conditions: Central Nervous System (CNS); cited from earlier work
5-HT2A [3] = conditions: Central Nervous System (CNS); cited from earlier work; remark: listed apart in the source
CAR-induced paw edema = test: Carrageenan (CAR)-induced rat paw edema (plethysmometer); conditions: Psilocin alone at 3 and 10 mg/Kg
Method: A study was performed using male Sprague-Dawley rats (200-250 g; Envigo, Milan, Italy). Food and water were accessible ad libitum. Rats were concurrently subjected to a singular subplantar injection of CAR (100 μL of saline solution containing 1% CAR). […] Edema was expressed as the increase in paw volume (mL) after CAR injection relative to the pre-injection value for all animals. Scores were expressed as paw volume difference (mL).

[4] = tested on: mechanical allodynia / paw-withdrawal threshold after CAR injection; test: Mechanical allodynia, Von Frey hair test after CAR injection; conditions: Psilocin alone at 3 and 10 mg/Kg
Method: A study was performed using male Sprague-Dawley rats (200-250 g; Envigo, Milan, Italy). Food and water were accessible ad libitum. Rats were concurrently subjected to a singular subplantar injection of CAR (100 μL of saline solution containing 1% CAR).
Mechanical allodynia was evaluated using a dynamic plantar Von Frey hair aesthesiometer on time 0 and 1, 2, 3, 4, 5, and 6 days post-injection (Bio-EVF4; Bioseb, Vitrolles, France) as previously described (D'Amico, R.; Fusco, R.; Siracusa, R.; Impellizzeri, D.; Peritore, A. F.; Gugliandolo, E.; Interdonato, L.; Sforza, A. M.; Crupi, R.; Cuzzocrea, S.; et al. Inhibition of P2X7 Purinergic Receptor Ameliorates Fibromyalgia Syndrome by Suppressing NLRP3 Pathway. Int. J. Mol. Sci. 2021, 22, 6471. https://doi.org/10.3390/ijms22126471). The device encloses a force transducer furnished with a plastic tip. When pressure is applied to the tip, the force applied is recorded. The tip was applied to the plantar area of the hind leg, and a rising upward force was exerted until the paw was withdrawn. The withdrawal threshold was defined as the force, expressed in grams, at which the mouse removed the paw.
To investigate whether Psilocin+Pinoline were able to reduce pain associated with CAR injection, a Von Frey test was performed.

| SMILES | effect of pinoline on psilocin activity (head twitch) ([1]; pinoline 3 mg/kg with psilocin 1 mg/kg) | effect of pinoline on psilocin activity (head twitch) ([1]; pinoline 10 mg/kg with psilocin 1 mg/kg) | effect in head twitch test, 11-20 minutes ([1]; 10 mg/kg alone, after 11-20 minutes from administration) | number of head movements ([1]; 10 mg/kg, after 10 minutes from treatment) | binding to 5-HT2A receptor (5-HT2A [2]) | activities caused by 5-HT2A binding in the CNS (5-HT2A [3]) | anti-inflammatory effects (CAR-induced paw edema) | analgesic effects [4] |
| --- | --- | --- | --- | --- | --- | --- | --- | --- |
| COc1ccc2[nH]c3c(c2c1)CCNC3 [Pinoline, pinoline] | prolonged the psilocin (1 mg/kg) activity | prolonged the psilocin (1 mg/kg) activity | – | – | – | – | – | – |
| CN(C)CCc1c[nH]c2cccc(O)c12 [Psilocin, 4-hydroxy-N,N-dimethyltryptamine] | – | – | finished | important number of head movements | known to bind | hallucinogenic, anxiolytic, and psychoactive activities | anti-inflammatory and analgesic effects | anti-inflammatory and analgesic effects |
| CN(C)CCc1c[nH]c2cccc(OP(=O)(O)O)c12 [Psilocybin, 4-phosphoryloxy-N,N-dimethyltryptamine] | – | – | – | – | known to bind | hallucinogenic, anxiolytic, and psychoactive activities | – | – |
